How the values were obtained:
sigma-2 receptors = target: sigma-2 receptors; design: method as in earlier work; settings: cited from earlier work
mice [1] = experiment: Motor coordination in the chimney test; format: in vivo, male Albino Swiss (CD-1) mice; settings: chimney test, 30 min after injection, n = 8
Experimental: (§1) Blood pressure measurement and ECG were performed on male Wistar rats weighing 200–220 g (six months old). Locomotor activity and chimney tests were performed on adult male Albino Swiss (CD-1) mice weighing 18–22 g ([…]). The animals were obtained from an accredited animal house at the Faculty of Pharmacy, Jagiellonian University Medical College, Krakow, Poland. The experimental groups consisted of 6–8 animals. The animals were housed in constant temperature (22–24 °C) and humidity (40–60%) facilities, exposed to 12:12 h light/dark cycles, and were maintained on a standard pellet diet with tap water available ad libitum. Rats and mice were housed in pairs or 8 animals per home cage, respectively.
The effect of tested compounds on motor impairment were quantified with the chimney test of Boissier et al. (1960). The mice were trained before the test, and only the animals able to get out of the chimney within 1 min were used at the experimental stage. The selected mice were placed in a 25 cm-long and 2.5 cm in diameter […] tube, which was reversed so that the mice could leave it only by climbing up backward until they reached the other end. The test was performed 30 min after injection (i.p.) of the examined compounds. Motor impairment was indicated by the inability of the animals to climb up backwards in the transparent tube within 60 s.

σ1R = target: σ1R; design: method as in PMID 34908391; settings: cited from earlier work
[2] = target: T1, human ERG potassium channel (Kv11.1) (Homo sapiens, UniProt Q12809); experiment: Whole-cell automated patch clamp (QPatch16X), inhibition of hERG currents; format: cell-based
T1 construct: expressed in transfected cells
Experimental: Electrophysiology experiments were performed on a QPatch16X automatic patch clamp platform (Sophion Bioscience, Ballerup, Denmark). Chinese hamster ovary (CHO) cells stably expressing the human ERG potassium channel (Kv11.1) were cultured using standard procedures. On the day of the experiment, cells were collected from the culture flask using TrypLE Express solution (Life Technologies, Thermo Fisher Scientific, Carlsbad, California, United States) and resuspended in EX-CELL ACF CHO serum-free medium (Merck KGaA, Sigma-Aldrich, Darmstadt, Germany), supplemented with 25 mM HEPES, 100 U/mL penicillin/streptomycin, and 0.04 mg/mL soybean trypsin inhibitor (all components from Sigma Aldrich).
The cells were placed in the lidless microtube and located onboard the automated electrophysiology instrument, where they were automatically relocated to a built-in centrifuge.
Cells were transferred to pipetting wells of single-use 16-channel planar patch chip plates (QPlate 16X, Sophion Bioscience, Ballerup, Denmark) and gigaseals were formed upon application of a combined suction/voltage protocol in a standard protocol supplied by Sophion Bioscience for CHO cells. Once the whole-cell mode was obtained, the cells were kept in a holding potential of -90 mV between the programmed stimulation protocols.
Whole-cell potassium currents were measured in response to repeatedly executed voltage protocols constituted of the following steps: brief clamping to −50 mV (200 ms), subsequent depolarization to 20 mV for 4000 ms, and final repolarization to −50 mV when the outward tail current was measured for 4000 ms.
The average current peak values determined in the presence of particular concentrations of the compound tested were subjected to a sigmoidal dose–response curve fitting, where the bottom plateau parameter was constrained to 0. The IC50 values were then calculated from the obtained sigmoidal dose–response curves. Data were analyzed using QPatch Assay Software (v5.0, Sophion Bioscience, Ballerup, Denmark) and represent the mean of three experiments carried out on distinct cells.

H3R = system: H3R; design: method as in PMID 34908391; settings: ratio of Ki values; cited from earlier work
σ2R = target: σ2R; design: method as in PMID 34908391; settings: cited from earlier work
[3] = system: rats fed a palatable diet; experiment: Plasma AlaT, AspaT, gGT and ALP activity after repeated administration in rats fed a palatable diet; format: in vivo; settings: 10 mg/kg b.w. i.p. repeated
Experimental: Standard diet ( 8% fats, 67% carbohydrates, and 25% proteins) contained 100 g feed—280 kcal. Rats fed a palatable diet had access to a diet consisting of milk chocolate with nuts, cheese, salted peanuts, and 7% condensed milk and simultaneously to standard feed (Labofeed B, Morawski Manufacturer Feed, Kcynia, Poland) for 4 weeks. The feeding was not in any way forced, and rats decided themselves when, what, and how much to eat. A palatable diet contained 100 g of peanuts—612 kcal; 100 mL of condensed milk—131 kcal; 100 g of milk chocolate—529 kcal; and 100 g of cheese—325 kcal.
The study evaluating the activities of alanine aminotransferase (AlaT), aspartate aminotransferase (AspaT), gamma-glutamyl transpeptidases (gGT), and alkaline phosphatase (ALP) was carried out after completing the excessive eating model experiments described in our previous work. Compounds were administered for twenty-eight days at a dose of 10 mg/kg b.w./day. On the 31st day of the experiment, 20 min after i.p. administration of heparin (5000 units/rat) and thiopental (70 mg/kg b.w.), blood was collected from the left carotid artery and then centrifuged at 600× g (15 min, 4 °C) in order to obtain the plasma. To determine the activities of AlaT, AapaT, gGT, and ALP in the plasma samples, a standard enzymatic spectrophotometric test (Biomaxima S.A., Lublin, Poland) was used.

normotensive rats = experiment: Blood pressure in anesthetized normotensive rats (carotid artery cannulation); format: in vivo, male Wistar rats; settings: single i.p. 10 mg/kg b.w., 5, 10 and 20 min after administration
Experimental: as §1
Rats were anesthetized with thiopental (70 mg/kg) via i.p. injection. The left carotid artery was cannulated with polyethylene tubing filled with a heparin solution in saline to facilitate pressure measurements using a PowerLab Apparatus (ADInstruments, Sydney, Australia). After a 20 min stabilization period, the test compounds were administered i.p. at a dose of 10 mg/kg b.w. in a constant volume of 1 mL/kg b.w. Blood pressure was recorded immediately before administration and 5, 10, 15, 20, 30, 40, 50, and 60 min after the administration of the test compound [47].

mice [4] = experiment: Locomotor activity in mice (activity cages, photobeam breaks); format: in vivo, male Albino Swiss (CD-1) mice; settings: single i.p. 30 mg/kg b.w., vs vehicle group
Experimental: as §1
Locomotor activity was individually recorded for each animal using specifically designed activity cages made of clear Perspex (40 cm × 40 cm × 31 cm, Activity Cage 7441, Ugo Basile, Italy). The cages were supplied with I.R. horizontal beam emitters connected to a counter that records the light-beam interruptions. The compounds suspensions were administered as i.p. injections 30 min before testing. Control animals received injections of vehicles. Each mouse was placed in a cage for a 30 min habituation period. After that time, the number of breaks in the photobeams was measured for 5 min, which is the same time as the observation period used in other tests.

rats = experiment: Heart rate and ECG intervals in rats; format: in vivo, male Wistar rats; settings: 10 mg/kg i.p.
Experimental: as §1
In vivo electrocardiographic measurements were performed using an ASPEL ASCARD B5 apparatus, standard lead II, and a paper speed of 50 mm/s. The study was carried out after a single administration of the test compounds (10 mg/kg i.p.). […] The following parameters were then calculated and analyzed: duration of PQ, QT, QRS, RR intervals, and heart rate.

T1 sequence (Q12809 whole entry): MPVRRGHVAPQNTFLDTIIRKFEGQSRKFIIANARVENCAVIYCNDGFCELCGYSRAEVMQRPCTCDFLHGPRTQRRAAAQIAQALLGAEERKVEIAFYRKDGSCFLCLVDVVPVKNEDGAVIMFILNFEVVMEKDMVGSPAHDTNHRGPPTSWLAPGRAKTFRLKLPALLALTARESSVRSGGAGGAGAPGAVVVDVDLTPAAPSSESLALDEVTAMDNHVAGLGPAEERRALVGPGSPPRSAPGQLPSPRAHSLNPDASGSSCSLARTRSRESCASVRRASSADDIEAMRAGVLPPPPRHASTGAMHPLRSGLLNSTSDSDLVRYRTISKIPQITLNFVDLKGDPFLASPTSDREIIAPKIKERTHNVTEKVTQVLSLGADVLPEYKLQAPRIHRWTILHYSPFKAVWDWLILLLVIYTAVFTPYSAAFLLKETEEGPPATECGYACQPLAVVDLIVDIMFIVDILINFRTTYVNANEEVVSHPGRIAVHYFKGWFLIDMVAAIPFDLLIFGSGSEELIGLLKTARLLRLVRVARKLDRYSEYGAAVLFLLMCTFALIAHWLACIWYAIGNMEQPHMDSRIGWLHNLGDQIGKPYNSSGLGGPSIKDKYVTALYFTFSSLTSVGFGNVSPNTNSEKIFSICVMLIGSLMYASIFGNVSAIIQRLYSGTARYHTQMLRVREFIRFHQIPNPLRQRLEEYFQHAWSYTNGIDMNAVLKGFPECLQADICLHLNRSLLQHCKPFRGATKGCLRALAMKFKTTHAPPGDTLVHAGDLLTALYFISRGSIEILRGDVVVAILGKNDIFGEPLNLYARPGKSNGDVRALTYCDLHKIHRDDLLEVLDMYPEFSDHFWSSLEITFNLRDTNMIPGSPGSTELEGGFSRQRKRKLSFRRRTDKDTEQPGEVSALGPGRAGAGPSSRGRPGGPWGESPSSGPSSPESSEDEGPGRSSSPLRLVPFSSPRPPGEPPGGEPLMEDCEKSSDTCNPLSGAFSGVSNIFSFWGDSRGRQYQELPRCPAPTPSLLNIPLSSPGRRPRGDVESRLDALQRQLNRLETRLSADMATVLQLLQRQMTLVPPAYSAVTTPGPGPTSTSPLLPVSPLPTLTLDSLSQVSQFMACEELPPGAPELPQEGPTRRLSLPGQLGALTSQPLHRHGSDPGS

## Clc1ccc(CCCOCCCN2CCCCC2)cc1 [Pitolisant]
sigma-2 receptors
  Ki: 6.5 nM

## O=C(c1ccccc1)c1ccc(OCCCN2CCN(c3ccncc3)CC2)cc1 [KSK-63]
Mice [1]; 10 mg/kg i.p.
  % of Mice Impaired: 0%
Mice [1]; 20 mg/kg i.p.
  % of Mice Impaired: 0%
Mice [1]; 30 mg/kg i.p.
  % of Mice Impaired: 0%
σ1R
  Ki: 726 nM
σ1R; ratio of Ki values
  σ1/σ2: 24.83
[2]; CHO cells stably expressing human ERG, whole-cell, mean of three experiments, read-out: Mean IC50 ± SEM, inhibition of hERG currents
  IC50: 570 ± 50 nM
[2]; relative to reference compound verapamil
  Inhibition of hERG compared with verapamil: close to the reference compound
H3R
  H3/σ1: 0.004
  H3/σ2: 0.11
σ2R
  Ki: 29.2 nM
[3]; relative to both control groups (standard or palatable feed)
  Plasma AspaT activity: higher AspaT activity
[3]; vs control group fed standard feed
  Plasma ALP activity: greater ALP activity
[3]; vs palatable feed-fed control group
  Plasma gGT activity: statistically lower gGT activity
[3]; vs vehicle control fed palatable feed
  Plasma AlaT activity: lower
Normotensive rats
  Increase of systolic blood pressure: 16–22 mmHg
Mice [4]
  Locomotor activity: significant decrease
rats; time 0 min
  Heart rate: 393.8 ± 34.8 beats/min
  PQ: 57.5 ± 2.5 ms
  QRS: 20.0 ± 0.0 ms
  QT: 63.3 ± 5.1 ms
rats; time 15 min
  Heart rate: 362.8 ± 38.0 beats/min
  PQ: 55.0 ± 5.0 ms
  QRS: 20.0 ± 0.0 ms
  QT: 64.4 ± 2.6 ms
rats; time 30 min
  Heart rate: 365.2 ± 34.8 beats/min
  PQ: 58.75 ± 1.3 ms
  QRS: 20.0 ± 0.0 ms
  QT: 65.3 ± 4.7 ms
rats; time 45 min
  Heart rate: 344.3 ± 30.8 beats/min
  PQ: 55.0 ± 5.0 ms
  QRS: 20 ± 0.0 ms
  QT: 62.1 ± 1.6 ms
rats; time 60 min
  Heart rate: 344.3 ± 30.8 beats/min
  PQ: 62.5 ± 2.1 ms
  QRS: 20.0 ± 0.0 ms
  QT: 65.2 ± 3.6 ms

— article PMC10138714, “Evaluation of Some Safety Parameters of Dual Histamine H3 and Sigma-2 Receptor Ligands with Anti-Obesity Potential” (International Journal of Molecular Sciences, 2023)
